The values that follow come from patent publication US11331299B2, “Medicinal use of serrulatane diterpenes” (The University of Sydney, priority 2016, dated 2022).

Values joined by “and” are separate entries in the source; they are usually repeats but may differ in a detail not shown here. Identical values can stand only once. Like-named read-outs stand apart in the source and are kept apart here.

The target of one data set is T1, EHMT1 (h) (Homo sapiens, UniProt Q9H9B1).
T1 sequence (Q9H9B1 1-1298): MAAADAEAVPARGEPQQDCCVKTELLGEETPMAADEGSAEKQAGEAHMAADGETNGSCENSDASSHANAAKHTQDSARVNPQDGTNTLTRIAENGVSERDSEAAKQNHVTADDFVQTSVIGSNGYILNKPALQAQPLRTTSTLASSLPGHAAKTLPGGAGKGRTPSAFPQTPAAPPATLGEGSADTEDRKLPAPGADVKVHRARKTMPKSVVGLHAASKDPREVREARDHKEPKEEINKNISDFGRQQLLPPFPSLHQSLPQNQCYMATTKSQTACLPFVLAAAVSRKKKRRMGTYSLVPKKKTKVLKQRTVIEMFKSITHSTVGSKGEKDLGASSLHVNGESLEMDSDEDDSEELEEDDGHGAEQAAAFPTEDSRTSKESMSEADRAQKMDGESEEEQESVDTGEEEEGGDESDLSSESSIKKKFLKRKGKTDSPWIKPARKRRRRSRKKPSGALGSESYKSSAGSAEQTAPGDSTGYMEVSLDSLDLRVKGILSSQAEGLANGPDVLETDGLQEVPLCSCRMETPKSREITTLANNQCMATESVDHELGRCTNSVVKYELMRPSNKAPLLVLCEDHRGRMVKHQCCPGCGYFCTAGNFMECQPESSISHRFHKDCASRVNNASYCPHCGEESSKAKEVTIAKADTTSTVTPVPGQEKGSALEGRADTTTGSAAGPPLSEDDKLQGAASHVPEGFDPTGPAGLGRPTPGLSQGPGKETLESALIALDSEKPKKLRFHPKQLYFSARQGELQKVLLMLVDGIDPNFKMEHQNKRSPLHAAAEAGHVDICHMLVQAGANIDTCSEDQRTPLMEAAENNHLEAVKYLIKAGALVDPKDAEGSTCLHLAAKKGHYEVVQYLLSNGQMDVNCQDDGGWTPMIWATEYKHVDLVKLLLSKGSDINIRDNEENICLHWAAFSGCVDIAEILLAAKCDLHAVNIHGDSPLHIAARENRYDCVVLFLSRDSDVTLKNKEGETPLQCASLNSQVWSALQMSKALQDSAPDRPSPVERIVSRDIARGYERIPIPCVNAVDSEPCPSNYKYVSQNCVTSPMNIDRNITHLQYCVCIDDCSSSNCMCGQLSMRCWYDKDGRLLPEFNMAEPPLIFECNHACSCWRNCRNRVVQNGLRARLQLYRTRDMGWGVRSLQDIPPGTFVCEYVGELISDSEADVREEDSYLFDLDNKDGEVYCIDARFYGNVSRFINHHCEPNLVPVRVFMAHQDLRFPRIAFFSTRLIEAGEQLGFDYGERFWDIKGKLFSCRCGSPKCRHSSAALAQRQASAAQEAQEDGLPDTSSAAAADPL
The conditions noted are these: read-out: Reference: IC50; cited from earlier work.

The format of data set [1] is in vivo, female NOD/SCID mice. The conditions noted are these: for Body Weight: single animals No. 1-3. The method, then:
Two studies were conducted by Eurofins Panlabs Taiwan, Ltd. The purpose of Study 1 was to assess the possible adverse effects of Compound 1 alone or in combination with […] in Maximum Tolerated Dose (MTD) assay. The purpose of Study 2 is a follow-up study performed at escalating doses.
Compound 1 was dissolved in 10% Tween 20/90% PBS or 20% Tween 20/80% PBS for IP injections. Compound 1 was administrated alone or in combination with […] at a dosing volume of 10 or 20 mL/kg for each substance.
For mortality, test substance (Compound 1; 100 mg/kg) alone or in combination with […] (8.75, 17.5, or 35 mg/kg; given on the same day) was administered to mice by IP injection to evaluate the possible adverse effects in MTD assay. […]. […]
A follow-up MTD study was performed to evaluate for the adverse effects of the test substance (Compound 1) at escalating doses alone or in combination with […] (17.5 mg/kg) via IP in a group of 3 female NOD/SCID mice at 6-7 weeks of age.
For mortality, treatment with Compound 1 at escalating doses (200 mg/kg) alone and in combination with […] (17.5 mg/kg; given on the same day) were administered by IP injection to a group of 3 female NOD/SCID mice at 6-7 weeks of age. The mortality was monitored at 30 min and again at 3, 24, 48 and 72 hours after compound administrations.
For body weight, test substance (Compound 1) at escalating doses (200 mg/kg) alone or in combination with […] (17.5 mg/kg; given on the same day) were administered by IP injection to a group of 3 female NOD/SCID mice at 6-7 weeks of age. The body weight of each animal was measured and recorded daily for 3 days.
For behavioral, symptomatic i.e. neurological and autonomic signs, test substance (Compound 1; 200 mg/kg) alone or in combination with […] (17.5 mg/kg; given on the same day) were administered by IP injection to a group of 3 female NOD/SCID mice at 6-7 weeks of age. The animals were then observed for presences of acute toxic symptoms and autonomic effects for 30 min after the first dose.

The test system of data set [2] is IL-4 secretion from human CD4-positive T-cells stimulated with antiCD2/antiCD3/antiCD28-coated beads. As to the kind of experiment: T-cell IL-4 assay. Format: cell-based.
Data set [3] deals with IL-2 secretion from human CD4-positive T-cells stimulated with antiCD2/antiCD3/antiCD28-coated beads. As to the kind of experiment: T-cell IL-2 assay. Format: cell-based.
The next data set concerns Wi38. As to the kind of experiment: OncoPanel normal cell proliferation assay (3-day). Format: cell-based. To be noted: Homo sapiens, WI-38, 72 h, Wi38, lung fibroblast, 3-day incubation.
Setting [4] is: 200 mg/kg IP, individual mice No. 1-3, 30 min after first dose, Study 2 Round 1.
For Autonomic signs: Death in this document: key: −: no effects; ±: Slight to moderate effects; +: Severe effects; ↓: Low; D: Deep.
For Autonomic signs: Dec. Palpebral Size in this document: key: −: no effects; ±: Slight to moderate effects; +: Severe effects; ↓: Low; D: Deep.
For Autonomic signs: Diarrhea in this document: key: −: no effects; ±: Slight to moderate effects; +: Severe effects; ↓: Low; D: Deep.
For Autonomic signs: Inc. Palpebral Size in this document: key: −: no effects; ±: Slight to moderate effects; +: Severe effects; ↓: Low; D: Deep.

As a reminder, the IC50 is the midpoint of a concentration-inhibition curve. Turning to `Nc1ncnc2c1ncn2[C@@H]1O[C@H](CSCC[C@H](N)C(=O)O)[C@@H](O)[C@H]1O` [SAH], the IC50 at EHMT1 (h) was 0.18 µM.
The term EC50 denotes the concentration needed to bring the measured effect to its halfway point. One may read the GI50 as the concentration at which growth is held to half of that of the control. Regarding `CC(C)=CCC[C@H](CO)[C@@H]1CC[C@@H](C)c2c1cc(C)c(O)c2O` [Compound 1, 7,8,18-trihydroxyserrulat-14-ene], in data set [1] (setting [4]), the “Autonomic signs: Body Temperature” value is “↓+”. For the same molecule, in data set [1] (setting [4]), the “Autonomic signs: Death” value was “−”. Also, in data set [1] (setting [4]), the “Autonomic signs: Dec. Palpebral Size” value is “−”. Further, in data set [1] (setting [4]), the “Autonomic signs: Diarrhea” value was “−”. The “Autonomic signs: Inc. Palpebral Size” value in data set [1] (setting [4]) is reported as “−”. The “Autonomic signs: Lacrimation” value in data set [1] (setting [4]) is listed as “−”. Moreover, in data set [1] (setting [4]), the “Autonomic signs: Others” value is given as “−”. Moreover, the “Autonomic signs: Piloerection” value in data set [1] (setting [4]) was “−”. For the same molecule, in data set [1] (setting [4]), the “Autonomic signs: Salivation F.V.” value is given as “−”. Also, in data set [1] (setting [4]), the “Autonomic signs: Skin Color” value is reported as “−”. Also, in data set [1] (Study 1, Compound 1 100 mg/kg IP alone), the adverse effects result was “did not elicit significant adverse effects”. The survival entry in data set [1] (Study 1, Compound 1 100 mg/kg IP alone, 72-hour observation period) is “All test animals survived”. For the same molecule, the “Response (death/test)” value is 0/3 in data set [1] (Study 1, IP, 100 mg/kg, 30 min); 0/3 in data set [1] (Study 1, IP, 100 mg/kg, 3 hrs); 0/3 in data set [1] (Study 1, IP, 100 mg/kg, Day 1); 0/3 in data set [1] (Study 1, IP, 100 mg/kg, Day 2); 0/3 in data set [1] (Study 1, IP, 100 mg/kg, Day 3); 0/3 in data set [1] (Study 2, IP, 200 mg/kg, 30 min). For the same molecule, the “Response (death/test)” value in data set [1] (Study 2, IP, 200 mg/kg, 3 hrs) is 0/3; in data set [1] (Study 2, IP, 200 mg/kg, Day 1) it was 1/3; in data set [1] (Study 2, IP, 200 mg/kg, Day 2), 3/3; in data set [1] (Study 2, IP, 200 mg/kg, Day 3) it was 3/3. The autonomic sign result in data set [1] (Study 2, 200 mg/kg IP, 30 min after dose) is listed as “Hypothermia”. Besides, the “Body Weight” value was 22 g and 21 g (2×) in data set [1] (Study 2, IP, 200 mg/kg, Day 0, 200 mg/kg); 21 g in data set [1] (Study 2, IP, 200 mg/kg, Day 1). Also, the “B.W.” value in data set [1] (Study 2 Round 1, signs table, IP, 200 mg/kg, animals No. 1-3) was 22 g and 21 g. The Emax in data set [2] (read-out: Inhibition of IL-4 release, Max Effect) turned out to be 100%; in data set [3] (read-out: Inhibition of IL-2 release, Max Effect) it was 98%. For the same molecule, the EC50 in data set [2] (read-out: Inhibition of IL-4 release, Rel EC50) turned out to be 0.523 µM; in data set [3] (read-out: Inhibition of IL-2 release, Rel EC50), 0.327 µM; in the data set with Wi38 (read-out: Cell Count EC50), 5.45 µM. Moreover, the 50% growth inhibitory concentration (GI50) in the data set with Wi38 (read-out: Cell Count GI50) came to 5.92 µM. The IC50 in the data set with Wi38 (read-out: Cell Count IC50) came out at 10.4 µM.
